# Tests used:
# [1] = test system: patients with advanced solid tumours; set-up: method as in PMID 26842236; conditions: veliparib 40 mg BID days 1–14 of a 21-day cycle with irinotecan 100 mg/m^2 day 1 and 8; cited from earlier work
# [2] = test system: patients with advanced solid tumours; assay: Treatment-emergent adverse events (NCI CTCAE version 4.0); type: in vivo, human
# Excerpt: The sample size was based on clinical justification.
# [3] = veliparib plus FOLFIRI, Combined RP2D n = 31, all grades
# [4] = veliparib plus FOLFIRI, Combined RP2D n = 31, grade 3/4
# [5] = veliparib plus FOLFIRI, Part 1 n = 67, all grades
# [6] = veliparib plus FOLFIRI, Part 1 n = 67, grade 3/4
# [7] = veliparib plus FOLFIRI, Parts 2 and 3 n = 25, all grades
# [8] = veliparib plus FOLFIRI, Parts 2 and 3 n = 25, grade 3/4
# [9] = veliparib plus FOLFIRI, Total n = 92, all grades
# [10] = veliparib plus FOLFIRI, Total n = 92, grade 3/4
# [11] = veliparib plus FOLFIRI, all treated patients (92)
# [12] = veliparib plus FOLFIRI, all treated patients (92), any grade
compound,measurement,setting,value
"C[C@]1(c2nc3c(C(N)=O)cccc3[nH]2)CCCN1 [veliparib, Veliparib]",Tolerability,[1],well tolerated
same,Patients with TEAEs that led to death within 30 days of the last veliparib dose,[2]; considered not related or probably not related to veliparib and FOLFIRI,Four
same,Patients with a TEAE that led to death within 63 days after the last veliparib dose,"[2]; disease progression, considered not related or probably not related",One
same,TEAE Alopecia,[2]; [3],16 (51.6) n (%)
same,TEAE Anaemia,[2]; [3],15 (48.3) n (%)
same,TEAE Constipation,[2]; [3],9 (29.0) n (%)
same,TEAE Decreased appetite,[2]; [3],7 (22.5) n (%)
same,TEAE Diarrhoea,[2]; [3],17 (54.8) n (%)
same,TEAE Fatigue,[2]; [3],13 (41.9) n (%)
same,TEAE Nausea,[2]; [3],23 (74.1) n (%)
same,TEAE Neutropenia,[2]; [3],25 (80.6) n (%)
same,TEAE Vomiting,[2]; [3],14 (45.1) n (%)
same,TEAE Alopecia,[2]; [4],0 (0.0) n (%)
same,TEAE Anaemia,[2]; [4],5 (16.1) n (%)
same,TEAE Constipation,[2]; [4],0 (0.0) n (%)
same,TEAE Decreased appetite,[2]; [4],0 (0.0) n (%)
same,TEAE Diarrhoea,[2]; [4],5 (16.1) n (%)
same,TEAE Fatigue,[2]; [4],0 (0.0) n (%)
same,TEAE Nausea,[2]; [4],1 (3.2) n (%)
same,TEAE Neutropenia,[2]; [4],17 (54.8) n (%)
same,TEAE Vomiting,[2]; [4],1 (3.2) n (%)
same,TEAE Alopecia,[2]; [5],31 (46.2) n (%)
same,TEAE Anaemia,[2]; [5],27 (40.2) n (%)
same,TEAE Constipation,[2]; [5],18 (26.8) n (%)
same,TEAE Decreased appetite,[2]; [5],18 (26.8) n (%)
same,TEAE Diarrhoea,[2]; [5],40 (59.7) n (%)
same,TEAE Fatigue,[2]; [5],27 (40.2) n (%)
same,TEAE Nausea,[2]; [5],41 (61.1) n (%)
same,TEAE Neutropenia,[2]; [5],41 (61.1) n (%)
same,TEAE Vomiting,[2]; [5],32 (47.7) n (%)
same,TEAE Alopecia,[2]; [6],0 (0.0) n (%)
same,TEAE Anaemia,[2]; [6],7 (10.4) n (%)
same,TEAE Constipation,[2]; [6],1 (1.4) n (%)
same,TEAE Decreased appetite,[2]; [6],0 (0.0) n (%)
same,TEAE Diarrhoea,[2]; [6],5 (7.4) n (%)
same,TEAE Fatigue,[2]; [6],3 (4.4) n (%)
same,TEAE Nausea,[2]; [6],2 (2.9) n (%)
same,TEAE Neutropenia,[2]; [6],26 (38.8) n (%)
same,TEAE Vomiting,[2]; [6],3 (4.4) n (%)
same,TEAE Alopecia,[2]; [7],9 (36.0) n (%)
same,TEAE Anaemia,[2]; [7],14 (56.0) n (%)
same,TEAE Constipation,[2]; [7],10 (40.0) n (%)
same,TEAE Decreased appetite,[2]; [7],13 (52.0) n (%)
same,TEAE Diarrhoea,[2]; [7],16 (64.0) n (%)
same,TEAE Fatigue,[2]; [7],17 (68.0) n (%)
same,TEAE Nausea,[2]; [7],15 (60.0) n (%)
same,TEAE Neutropenia,[2]; [7],20 (80.0) n (%)
same,TEAE Vomiting,[2]; [7],12 (48.0) n (%)
same,TEAE Alopecia,[2]; [8],0 (0.0) n (%)
same,TEAE Anaemia,[2]; [8],2 (8.0) n (%)
same,TEAE Constipation,[2]; [8],1 (4.0) n (%)
same,TEAE Decreased appetite,[2]; [8],0 (0.0) n (%)
same,TEAE Diarrhoea,[2]; [8],0 (0.0) n (%)
same,TEAE Fatigue,[2]; [8],0 (0.0) n (%)
same,TEAE Nausea,[2]; [8],1 (4.0) n (%)
same,TEAE Neutropenia,[2]; [8],13 (52.0) n (%)
same,TEAE Vomiting,[2]; [8],2 (8.0) n (%)
same,TEAE Alopecia,[2]; [9],40 (43.5) n (%)
same,TEAE Anaemia,[2]; [9],41 (44.6) n (%)
same,TEAE Constipation,[2]; [9],28 (30.4) n (%)
same,TEAE Decreased appetite,[2]; [9],31 (33.6) n (%)
same,TEAE Diarrhoea,[2]; [9],56 (60.9) n (%)
same,TEAE Fatigue,[2]; [9],44 (47.8) n (%)
same,TEAE Nausea,[2]; [9],56 (60.9) n (%)
same,TEAE Neutropenia,[2]; [9],61 (66.3) n (%)
same,TEAE Vomiting,[2]; [9],44 (47.8) n (%)
same,TEAE Alopecia,[2]; [10],0 (0.0) n (%)
same,TEAE Anaemia,[2]; [10],9 (9.8) n (%)
same,TEAE Decreased appetite,[2]; [10],0 (0.0) n (%)
same,TEAE Diarrhoea,[2]; [10],5 (5.4) n (%)
same,TEAE Fatigue,[2]; [10],3 (3.2) n (%)
same,TEAE Nausea,[2]; [10],3 (3.2) n (%)
same,TEAE Neutropenia,[2]; [10],39 (42.4) n (%)
same,TEAE Vomiting,[2]; [10],5 (5.4) n (%)
same,Grade 3 or 4 TEAE anaemia,[2]; [11],9.8%
same,Grade 3 or 4 TEAE neutropenia,[2]; [11],42.4%
same,Patients who discontinued veliparib due to TEAEs,[2]; [11],5.4%
same,Patients with ≥1 grade 3 or 4 TEAEs,[2]; [11],67.4%
same,Patients with ≥1 treatment-emergent serious AEs (SAEs),[2]; [11],38.0%
same,Serious AE PD,[2]; [11],2.2%
same,Serious AE abdominal pain,[2]; [11],2.2%
same,Serious AE dehydration,[2]; [11],2.2%
same,Serious AE febrile neutropenia,[2]; [11],2.2%
same,Serious AE intestinal obstruction,[2]; [11],2.2%
same,Serious AE malignant neoplasm progression,[2]; [11],2.2%
same,Serious AE nausea,[2]; [11],2.2%
same,Serious AE pyrexia,[2]; [11],4.3%
same,Serious AE vomiting,[2]; [11],3.3%
same,"TEAE alopecia, patients",[2]; [12],43.5%
same,"TEAE anaemia, patients",[2]; [12],44.6%
same,"TEAE diarrhoea, patients",[2]; [12],60.9%
same,"TEAE fatigue, patients",[2]; [12],47.8%
same,"TEAE nausea, patients",[2]; [12],60.9%
same,"TEAE neutropenia, patients",[2]; [12],66.3%
same,"TEAE vomiting, patients",[2]; [12],47.8%
same,Patients who experienced one or more TEAEs,"[2]; veliparib plus FOLFIRI, treated patients (92)",All treated patients
